IC50 data for 32 molecules are collected here from patent US7875647B2, “Heteroaryl-pyrazole derivatives as cannabinoid CB1 receptor antagonists” (Green Cross Corporation, priority 2006, dated 2011).

The structures appear in SMILES notation.

For the first assay, the target named is T1, Cannabinoid-1 receptor (CB1R) (Rattus norvegicus, UniProt P20272).
T1 construct: The tissue obtained from the brain of SD rats was homogenized; from tissue; host or cells: brain of SD rats (membrane pellet of the homogenate)
T1 sequence (P20272 whole entry): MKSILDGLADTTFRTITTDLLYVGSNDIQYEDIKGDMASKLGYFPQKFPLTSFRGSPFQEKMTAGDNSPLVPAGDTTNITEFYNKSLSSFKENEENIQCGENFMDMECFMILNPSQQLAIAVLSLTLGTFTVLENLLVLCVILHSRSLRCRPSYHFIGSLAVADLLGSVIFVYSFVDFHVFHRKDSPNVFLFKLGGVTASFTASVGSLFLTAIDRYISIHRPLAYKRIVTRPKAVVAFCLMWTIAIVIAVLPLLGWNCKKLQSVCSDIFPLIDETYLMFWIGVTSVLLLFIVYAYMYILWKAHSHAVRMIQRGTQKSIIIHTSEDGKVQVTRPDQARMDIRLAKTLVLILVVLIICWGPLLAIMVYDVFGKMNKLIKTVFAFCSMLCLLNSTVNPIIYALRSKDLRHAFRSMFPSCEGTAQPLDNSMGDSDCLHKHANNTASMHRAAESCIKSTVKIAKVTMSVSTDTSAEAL
Nature of the assay: Cannabinoid-1 receptor (CB1R) binding affinity assay ([3H]CP-55940, rat CB-1 receptor binding protocol). Particulars: IC50(nM), brain tissue of SD rats, [3H]CP-55940, 30° C. 60 min.
The term IC50 denotes the point on the concentration scale where inhibition reaches its midpoint. Take `CCCCC(C)c1nnc(-c2nn(-c3ccc(Cl)cc3Cl)c(-c3ccc(Br)cc3)c2C)s1` (centres unmarked) [Example 380, 2-(5-(4-Bromophenyl)-1-(2,4-dichlorophenyl)-4-methyl-1H-pyrazol-3-yl)-5-(hexan-2-yl)-1,3,4-thiadiazole]: the 50% inhibitory concentration (IC50) came to 11.5 nM.
On the same count and under the same terms, as for `Cc1c(-c2nnc(C3CC=CC3)s2)nn(-c2ccc(Cl)cc2Cl)c1-c1ccc(Cl)cc1` [Example 384, 2-(5-(4-chlorophenyl)-1-(2,4-dichlorophenyl)-4-methyl-1H-pyrazol-3-yl)-5-(cyclopent-3-enyl)-1,3,4-thiadiazole], the figure is 20.2 nM.

Still in this assay, the particulars now being: brain tissue of SD rats, [3H]CP-55940, 30° C. 60 min; read-out: IC50.
Turning to `CCC(C)c1nnc(-c2nn(-c3ccc(Cl)cc3Cl)c(-c3ccc(Cl)cc3)c2C)s1` (centres unmarked) [Example 367, 2-sec-Butyl-5-(5-(4-chlorophenyl)-1-(2,4-dichlorophenyl)-4-methyl-1H-pyrazol-3-yl)-1,3,4-thiadiazole], the IC50 came out at 24.8 nM.
With `CCCC(C)c1nnc(-c2nn(-c3ccc(Cl)cc3Cl)c(-c3ccc(Cl)cc3)c2C)s1` (centres unmarked) [Example 368, 2-(5-(4-Chlorophenyl)-1-(2,4-dichlorophenyl)-4-methyl-1H-pyrazol-3-yl)-5-(pentan-2-yl)-1,3,4-thiadiazole], the IC50 worked out at 13.4 nM.
On the same count and under the same terms, the value for `Cc1c(-c2nnc(C(C)(C)C)s2)nn(-c2ccc(Cl)cc2Cl)c1-c1ccc(Br)cc1` [Example 369, 2-(5-(4-Bromophenyl)-1-(2,4-dichlorophenyl)-4-methyl-1H-pyrazol-3-yl)-5-tert-butyl-1,3,4-thiadiazole] was 12.5 nM; that for `Cc1c(-c2nnc(CC3CC3)s2)nn(-c2ccc(Cl)cc2Cl)c1-c1ccc(Cl)cc1` [Example 370, 2-(5-(4-Chlorophenyl)-1-(2,4-dichlorophenyl)-4-methyl-1H-pyrazol-3-yl)-5-(cyclopropylmethyl)-1,3,4-thiadiazole] was 67.7 nM.
Consider `Cc1c(-c2nnc(C(C)(C)C)s2)nn(-c2ccc(Cl)cc2Cl)c1-c1ccc(Cl)cc1` [Example 372, 2-tert-Butyl-5-(5-(4-chlorophenyl)-1-(2,4-dichlorophenyl)-4-methyl-1H-pyrazol-3-yl)-1,3,4-thiadiazole], for which the 50% inhibitory concentration (IC50) was determined as 25.2 nM.
Same read-out and setting: the value for `Cc1c(-c2nnc(C3CCCCC3)s2)nn(-c2ccc(Cl)cc2Cl)c1-c1ccc(Br)cc1` [Example 373, 2-(5-(4-Bromophenyl)-1-(2,4-dichlorophenyl)-4-methyl-1H-pyrazol-3-yl)-5-cyclohexyl-1,3,4-thiadiazole] was 20.5 nM.
With `CCc1c(-c2nnc(C3CCCCC3)s2)nn(-c2ccc(Cl)cc2Cl)c1-c1ccc(Br)cc1` [Example 374, 2-(5-(4-Bromophenyl)-1-(2,4-dichlorophenyl)-4-ethyl-1H-pyrazol-3-yl)-5-cyclohexyl-1,3,4-thiadiazole], the IC50 was determined as 30.5 nM.
The same measure, in the same setting: the value for `CCc1c(-c2nnc(C3CCC3)s2)nn(-c2ccc(Cl)cc2Cl)c1-c1ccc(Br)cc1` [Example 375, 2-(5-(4-Bromophenyl)-1-(2,4-dichlorophenyl)-4-ethyl-1H-pyrazol-3-yl)-5-cyclobutyl-1,3,4-thiadiazole] was 18.5 nM.
On the same count and under the same terms, as for `CCc1c(-c2nnc(C3CCCC3)s2)nn(-c2ccc(Cl)cc2Cl)c1-c1ccc(Br)cc1` [Example 376, 2-(5-(4-Bromophenyl)-1-(2,4-dichlorophenyl)-4-ethyl-1H-pyrazol-3-yl)-5-cyclopentyl-1,3,4-thiadiazole], the figure is 18.7 nM; as for `CCc1c(-c2nnc(C(C)(C)C)s2)nn(-c2ccc(Cl)cc2Cl)c1-c1ccc(Br)cc1` [Example 377, 2-(5-(4-Bromophenyl)-1-(2,4-dichlorophenyl)-4-ethyl-1H-pyrazol-3-yl)-5-tert-butyl-1,3,4-thiadiazole], 9.57 nM.
The same measure, in the same setting: the value for `Cc1c(-c2nnc(C3CCCCCC3)s2)nn(-c2ccc(Cl)cc2Cl)c1-c1ccc(Br)cc1` [Example 378, 2-(5-(4-Bromophenyl)-1-(2,4-dichlorophenyl)-4-methyl-1H-pyrazol-3-yl)-5-cycloheptyl-1,3,4-thiadiazole] was 31 nM; that for `CCCCC(C)c1nnc(-c2nn(-c3ccc(Cl)cc3Cl)c(-c3ccc(Cl)cc3)c2C)s1` (centres unmarked) [Example 379, 2-(5-(4-Chlorophenyl)-1-(2,4-dichlorophenyl)-4-methyl-1H-pyrazol-3-yl)-5-(hexan-2-yl)-1,3,4-thiadiazole] was 16.9 nM; that for `Cc1c(-c2nnc(C(C)c3ccccc3)s2)nn(-c2ccc(Cl)cc2Cl)c1-c1ccc(Cl)cc1` (centres unmarked) [Example 381, 2-(5-(4-chlorophenyl)-1-(2,4-dichlorophenyl)-4-methyl-1H-pyrazol-3-yl)-5-(1-phenylethyl)-1,3,4-thiadiazole] was 11.2 nM.
Consider `Cc1c(-c2nnc(NC3CCCCC3)s2)nn(-c2ccc(Cl)cc2Cl)c1-c1ccc(Cl)cc1` [Example 382, 5-(5-(4-chlorophenyl)-1-(2,4-dichlorophenyl)-4-methyl-1H-pyrazol-3-yl)-N-cyclohexyl-1,3,4-thiadiazol-2-amine], for which the IC50 turned out to be 60.3 nM.
On to `Cc1c(-c2nnc(C3CC=CCC3)s2)nn(-c2ccc(Cl)cc2Cl)c1-c1ccc(Cl)cc1` (centres unmarked) [Example 383, 2-(5-(4-chlorophenyl)-1-(2,4-dichlorophenyl)-4-methyl-1H-pyrazol-3-yl)-5-(cyclohex-3-enyl)-1,3,4-thiadiazole], for which the IC50 is 85.3 nM.
Regarding `Cc1c(-c2nnc(C(C)Cc3ccccc3)s2)nn(-c2ccc(Cl)cc2Cl)c1-c1ccc(Cl)cc1` (centres unmarked) [Example 385, 2-(5-(4-chlorophenyl)-1-(2,4-dichlorophenyl)-4-methyl-1H-pyrazol-3-yl)-5-(1-phenylpropan-2-yl)-1,3,4-thiadiazole], the IC50 was found to be 33.6 nM.
Regarding `CCc1c(-c2nnc(CC3CCCCC3)s2)nn(-c2ccc(Cl)cc2Cl)c1-c1ccc(Br)cc1` [Example 386, 2-(5-(4-bromophenyl)-1-(2,4-dichlorophenyl)-4-ethyl-1H-pyrazol-3-yl)-5-(cyclohexylmethyl)-1,3,4-thiadiazole], the IC50 is 13.2 nM.
Still for that read-out and setting: as for `Cc1c(-c2nnc(CC3CCCCC3)s2)nn(-c2ccc(Cl)cc2Cl)c1-c1ccc(Br)cc1` [Example 387, 2-(5-(4-bromophenyl)-1-(2,4-dichlorophenyl)-4-methyl-1H-pyrazol-3-yl)-5-(cyclohexylmethyl)-1,3,4-thiadiazole], the figure is 24.3 nM.
`CCCCC(C)c1nnc(-c2nn(-c3ccc(Cl)cc3Cl)c(-c3ccc(Br)cc3)c2CC)s1` (centres unmarked) [Example 388, 2-(5-(4-bromophenyl)-1-(2,4-dichlorophenyl)-4-ethyl-1H-pyrazol-3-yl)-5-(hexan-2-yl)-1,3,4-thiadiazole]: the IC50 is 7.01 nM.
Consider `CCc1c(-c2nnc(C(C)(C)C)s2)nn(-c2ccc(Cl)cc2Cl)c1-c1ccc(Cl)cc1` [Example 389, 2-tert-butyl-5-(5-(4-chlorophenyl)-1-(2,4-dichlorophenyl)-4-ethyl-1H-pyrazol-3-yl)-1,3,4-thiadiazole], for which the IC50 is 11.1 nM.
Same read-out and setting: the value for `CCc1c(-c2nnc(C3CCCCC3)s2)nn(-c2ccc(Cl)cc2Cl)c1-c1ccc(Cl)cc1` [Example 390, 2-(5-(4-chlorophenyl)-1-(2,4-dichlorophenyl)-4-ethyl-1H-pyrazol-3-yl)-5-cyclohexyl-1,3,4-thiadiazole] was 18.2 nM; that for `Cc1c(-c2nnc(C(C)C3CCCC3)s2)nn(-c2ccc(Cl)cc2Cl)c1-c1ccc(Cl)cc1` (centres unmarked) [Example 391, 2-(5-(4-chlorophenyl)-1-(2,4-dichlorophenyl)-4-methyl-1H-pyrazol-3-yl)-5-(1-cyclopentylethyl)-1,3,4-thiadiazole] was 14.3 nM.
Consider `Cc1c(-c2nnc(C(C)C3CCCCC3)s2)nn(-c2ccc(Cl)cc2Cl)c1-c1ccc(Cl)cc1` (centres unmarked) [Example 392, 2-(5-(4-chlorophenyl)-1-(2,4-dichlorophenyl)-4-methyl-1H-pyrazol-3-yl)-5-(1-cyclohexylethyl)-1,3,4-thiadiazole], for which the IC50 was 46.7 nM.
On the same count and under the same terms, as for `Cc1c(-c2nnc(C(C)(C)C3CCCC3)s2)nn(-c2ccc(Cl)cc2Cl)c1-c1ccc(Cl)cc1` [Example 393, 2-(5-(4-chlorophenyl)-1-(2,4-dichlorophenyl)-4-methyl-1H-pyrazol-3-yl)-5-(2-cyclopentylpropan-2-yl)-1,3,4-thiadiazole], the figure is 19.5 nM.
Same read-out and setting: as for `Cc1c(-c2nnc(C(C)(C)C3CCCCC3)s2)nn(-c2ccc(Cl)cc2Cl)c1-c1ccc(Cl)cc1` [Example 394, 2-(5-(4-chlorophenyl)-1-(2,4-dichlorophenyl)-4-methyl-1H-pyrazol-3-yl)-5-(2-cyclohexylpropan-2-yl)-1,3,4-thiadiazole], the figure is 13.9 nM; as for `CCc1c(-c2nnc(C3CCC3)s2)nn(-c2ccc(Cl)cc2Cl)c1-c1ccc(Cl)cc1` [Example 395, 2-(5-(4-chlorophenyl)-1-(2,4-dichlorophenyl)-4-ethyl-1H-pyrazol-3-yl)-5-cyclobutyl-1,3,4-thiadiazole], 21.8 nM.
Same read-out and setting: the value for `CCc1c(-c2nnc(C3CCCC3)s2)nn(-c2ccc(Cl)cc2Cl)c1-c1ccc(Cl)cc1` [Example 396, 2-(5-(4-chlorophenyl)-1-(2,4-dichlorophenyl)-4-ethyl-1H-pyrazol-3-yl)-5-cyclopentyl-1,3,4-thiadiazole] was 9.94 nM; that for `CCc1c(-c2nnc(C3CCCCCC3)s2)nn(-c2ccc(Cl)cc2Cl)c1-c1ccc(Cl)cc1` [Example 397, 2-(5-(4-chlorophenyl)-1-(2,4-dichlorophenyl)-4-ethyl-1H-pyrazol-3-yl)-5-cycloheptyl-1,3,4-thiadiazole] was 9.42 nM; that for `CCc1c(-c2nnc(C(C)CC)s2)nn(-c2ccc(Cl)cc2Cl)c1-c1ccc(Cl)cc1` (centres unmarked) [Example 398, 2-sec-butyl-5-(5-(4-chlorophenyl)-1-(2,4-dichlorophenyl)-4-ethyl-1H-pyrazol-3-yl)-1,3,4-thiadiazole] was 7.99 nM.
For `CCc1c(-c2nnc(C(C)CC)s2)nn(-c2ccc(Cl)cc2Cl)c1-c1ccc(Br)cc1` (centres unmarked) [Example 399, 2-(5-(4-bromophenyl)-1-(2,4-dichlorophenyl)-4-ethyl-1H-pyrazol-3-yl)-5-sec-butyl-1,3,4-thiadiazole], the IC50 stood at 7.63 nM.
